One assay relates to brain-specific receptors. Nature of the assay: inhibition of 3H-benzodiazepine (3H-flunitrazepam) binding to brain-specific receptors. The following applies: 1 μM test compound (activity criterion), rat cortex P2 fraction, 0° C., 30 minutes. The arrangement: species or system rat (Wistar strain).
Assay [1] concerns rats. Nature of the assay: protection from pentylenetetrazole-induced clonic seizures in rats. The format is in vivo, rat. As for the experimental part:
The anti-anxiety properties of the novel compounds of the invention have been established in a test which indicates anxiolytic activity by the measure of protection from convulsions resulting from the administration of pentylenetetrazole (sold as METROZOL, Reg. T.M.). Single or graded dosage levels of the test compounds were administered orally or intraperitoneally (in a 2% starch vehicle, containing 5% v/v polyethylene glycol and one to two drops of polysorbate 80) to groups of at least 4 rats. Thirty or 60 minutes after administration, the rats were treated intravenously with pentylenetetrazole at a dosage of 23 mg/kg. of body weight. This dose is estimated to cause clonic seizures in 99% of unprotected rats. A test compound is considered active if it protects 50% or more of the rats from clonic seizures. It has been reported (R. T. Hill and D. H. Tedeschi, "Animal Testing and Screening Procedures in Evaluating Psychotropic Drugs" in "An Introduction to Psychopharmacology", Eds. R. R. Rech and K. E. Moore, Raven Press, New York, pages 237-288 (1971)) that there is a high degree of correlation between antagonism of pentylenetetrazole seizures in rats and anti-anxiety effects in higher mammals.

Assay [2] has as its system rats. Nature of the assay: thirsty rat conflict test (non-conditioned passive avoidance). The format is in vivo, rat (Wistar strain). The source says: Another test which has been employed to assess anti-anxiety effects is a non-conditioned passive avoidance procedure described by J. R. Vogel, B. Beer and D. E. Clody, "A Simple and Reliable Conflict Procedure for Testing Anti-Anxiety Agents", Psychopharmacologia, Vol. 21, pages 1-7 (1971). A conflict situation is induced in rats by a modification of this method. The test is referred to herein as the "thirsty rat conflict" test.
Groups of 8 naive, Wistar strain rats, weighing 200-240 g. each, were deprived of water for 48 hours. The test compounds were administered in single or graded, oral or intraperitoneal doses, suspended in distilled water and one drop of polysorbate 80. The control animals received the vehicle alone. After 30 or 60 minutes, each rat was placed in an individual clear plexiglass chamber. Tap water was available ad libitum from a nipple located in a black plexiglass box adjacent to the main chamber. A circuit carrying a 0.7 milliampere AC shocking current was established between the stainless steel grid floor of the chamber and the nipple. After 20 licks of non-shocked drinking, a fixed ratio of a 2-second "shock-on" and 19 licks "shock-off" cycle began and continued for a total of 3 minutes. The number of shocks taken by each rat during a 3-minute interval was recorded and compared to a control group.

By ED50 is commonly meant the midpoint of the dose-response relation.

As for `N#Cc1ncn2c(-c3cccs3)ccnc12` [Example 1, 4-(2-Thienyl)imidazo[1,5-a]pyrimidine-8-carbonitrile], the “inhibition of 3H-benzodiazepine binding” value in the assay with brain-specific receptors is reported as 39%. Besides, the “resistance to convulsions induced by pentylenetetrazole” value with rats [1] (intraperitoneal, 50 mg./kg., pentylenetetrazole 23 mg/kg i.v.) is “inactive”. Also, in the assay with rats [2] (intraperitoneal, 25 mg/kg), the “activity in the thirsty rat conflict test” value was “active”.

Turning to `N#Cc1ncn2c(-c3ccsc3)ccnc12` [Example 2, 4-(3-Thienyl)imidazo[1,5-a]pyrimidine-8-carbonitrile], the “inhibition of 3H-benzodiazepine binding” value in the assay on brain-specific receptors is reported as 20%.

With `N#Cc1ncn2c(-c3cccnc3)ccnc12` [Example 5, 4-(3-Pyridyl)imidazo[1,5-a]pyrimidine-8-carbonitrile], the “inhibition of 3H-benzodiazepine binding” value in the assay with brain-specific receptors came out at 19%. Besides, in the assay on rats [1] (Rattus norvegicus, oral, dosage effective in 50% of the rats, pentylenetetrazole 23 mg/kg i.v., read-out: ED50, resistance to convulsions induced by pentylenetetrazole), the ED50 amounted to 6.8 mg/kg. Also, the “anxiolytic activity (protection from pentylenetetrazole convulsions)” value in the assay on rats [1] (general statement, oral or intraperitoneal, active if 50% or more of rats protected) is given as “shown to possess anxiolytic activity”. Moreover, in the assay with rats [1] (oral), the “resistance to convulsions induced by pentylenetetrazole (in words)” value is listed as “effective”. In the assay on rats [2] (general statement, oral or intraperitoneal, active if shocks significantly higher than control (Mann-Whitney U test)), the “anxiolytic activity (thirsty rat conflict test)” value is recorded as “shown to possess anxiolytic activity”. In the assay on rats [2] (oral, 25 mg./kg.), the “activity in the thirsty rat conflict test” value is “active”.

For the molecule `CCOC(=O)c1ncn2c(-c3cccnc3)ccnc12` [Example 15, Ethyl 4-(3-pyridyl)imidazo[1,5-a]pyrimidine-8-carboxylate], in the assay with brain-specific receptors, the “inhibition of 3H-benzodiazepine binding” value was 49%. The “activity in the thirsty rat conflict test” value with rats [2] (oral, 25 mg./kg.) was “inactive”.

Values taken from patent US4374988A, “4-Heteroarylimidazo-[1,5-A]pyrimidines” (American Cyanamid Company, priority 1981, dated 1983).
